Data set [1] relates to Mus musculus. Kind of data set: In vivo inhibition of epidermal DNA synthesis in mouse after topical application. In kind it is functional.
Data set [2] in a line: Rate constant of the photoreaction between compound and DNA. It is filed as ADME.
Data set [3] in a line: Solubility in water was determined. In kind it is physicochemical.
A short description of data set [4]: In vivo inhibition of epidermal DNA synthesis in mouse after topical application relative to that of 8-MOP. It is filed as functional.
For another data set, the system named is Nucleic Acid. As to the kind of experiment: Association constant to an isolated site calf thymus DNA. It is filed as nucleic-acid assay. The note with it: Bos taurus.
Data set [5] can be described thus: In vivo inhibition of epidermal DNA synthesis in mouse after oral administration relativ to that of 8-MOP. In kind it is functional.
Data set [6] relates to Mus musculus. Kind of data set: In vivo inhibition of epidermal DNA synthesis in mouse after oral administration. It is filed as functional.
The nature of data set [7]: Frequency of binding sites i.e., number of ligands bound per nucleotide.
Data set [8] in a line: Partition coefficient between octanol and water. In kind it is physicochemical.
Data set [9] can be described thus: Number of nucleotides occluded by a bound furocoumarin molecule.

Converted amounts (≈) assume the structure as drawn.

Broadly, the Inhibition is the relative decrease from the control value, in per cent. High values mean strong suppression, low ones little suppression. In the case of `O=c1ccc2ccc3occc3c2o1` [ANGELICIN], the Inhibition in the data set with Mus musculus [1] is 17.5%; with Mus musculus [6], 28%. The compound also showed a Rate constant in data set [2] of 0.011 min⁻¹. The same compound showed a Solubility in [3] (buffer) of 0.000105 M l-1. Also, the Relative activity is given as 0.28 in data set [4] and 0.71 in [5]. The Binding constant in the data set with Nucleic Acid worked out at 560. In data set [7], this compound came in with a 1/n of 0.063. In data set [8], this compound had a Partition coefficient of 120. This compound also came in with a Number in data set [9] of 15.9.

As to `Cc1cc2c(ccc3ccc(=O)oc32)o1`, the Rate constant in [2] was 0.021 min⁻¹.

In turn, `Cc1cc2occc2c2oc(=O)ccc12` returned a Rate constant in [2] of 0.034 min⁻¹.

Consider `Cc1cc(=O)oc2c1ccc1occ(C)c12`, for which the results for the Inhibition in the data set with Mus musculus [1] and with Mus musculus [6] were 44.27% and 25.82%, respectively. In data set [2], this compound registered a Rate constant of 0.073 min⁻¹. Further, the Solubility in [3] (buffer) is 0.000012 M l-1; in [3] (water, read-out: Solubility) it was 2.6 µg/mL (≈ 12.1 µM). In addition, the values for the Relative activity in data set [4] and in [5] were 0.72 and 0.66, respectively. In addition, in the data set on Nucleic Acid, the Binding constant came out at 6600. The 1/n in data set [7] was 0.08. Moreover, the Partition coefficient in data set [8] was 1190. For the same compound, the Number in [9] was found to be 12.5.

For `Cc1coc2ccc3ccc(=O)oc3c12`, the results for the Inhibition with Mus musculus [1] and in the data set with Mus musculus [6] were 58.43% and 36.75%, respectively. Moreover, the Rate constant in data set [2] stood at 0.037 min⁻¹. The Solubility in [3] (buffer) is 0.00007 M l-1; in [3] (water, read-out: Solubility) it was 14 µg/mL (≈ 69.9 µM). The figures for the Relative activity in data set [4] and in [5] were 0.95 and 0.94, respectively. Besides, the Binding constant with Nucleic Acid turned out to be 975. This compound also registered a 1/n in data set [7] of 0.065. In data set [8], this compound gave a Partition coefficient of 240. This compound returned a Number in [9] of 15.4.

In the case of `Cc1cc2occ(C)c2c2oc(=O)ccc12`, the Inhibition was found to be 58.41% with Mus musculus [1] and 53.33% in the data set on Mus musculus [6]. In [2], this compound displayed a Rate constant of 0.059 min⁻¹. In addition, the Solubility in [3] (buffer) turned out to be 0.000022 M l-1; in [3] (water, read-out: Solubility) it was 4.7 µg/mL (≈ 21.9 µM). Further, the Relative activity in [4] amounted to 0.95; in data set [5], 1.36. This compound also returned a Binding constant in the data set on Nucleic Acid of 5400. Besides, in [7], the 1/n turned out to be 0.08. Further, the Partition coefficient in data set [8] stood at 1041. In data set [9], this compound registered a Number of 12.5.

Turning to `COc1c2occc2cc2ccc(=O)oc12` [METHOXSALEN], the Inhibition in the data set with Mus musculus [1] was 61%; in the data set on Mus musculus [6], 39.1%. For the same compound, the Rate constant in data set [2] is 0.031 min⁻¹. The Relative activity in data set [4] and in [5] was 1 throughout. The Binding constant in the data set with Nucleic Acid was 736. Moreover, the 1/n in data set [7] was found to be 0.128. The compound also returned a Number in data set [9] of 7.81.

In the case of `Cc1cc(=O)oc2c1ccc1occc12`, the Rate constant in data set [2] worked out at 0.016 min⁻¹.

Source of the values: ChEMBL document CHEMBL1122235, “4'-Methylangelicins: new potential agents for the photochemotherapy of psoriasis” (J Med Chem, 1983).
